# Values joined by “and” are separate entries in the source; they are usually repeats but may differ in a detail not shown here. Equal entries are not always repeated. No end group written: not given here.
# Tests used:
# Solubility limit in DMSO = type: physicochemical; details: read-out: solubility limit in DMSO (concentrations above were not completely dissolved)
# Jurkat T cells = assay: Cytotoxicity of SWB; type: cell-based
# KG-1 cells = assay: Cytotoxicity of SWB; type: cell-based, human
# CEM-M7 cells = assay: Cytotoxicity of SWB; type: cell-based
# [1] = system: primary peripheral blood mononuclear cells (PBMC); assay: Cytotoxicity of SWB; type: cell-based
# [2] = system: R5 HIV-1 (CCR5 tropic HIV-1 NL4-3 92TH014-2); assay: HIV-1 infection of TZM-bl cells, R5 virus; type: cell-based; details: for enhancement of HIV infection: 1 ng p24 virus, 100 μg/ml peptide; for enhancers of HIV infection at the lowest viral dose: 0.01 ng p24 virus
# [3] = Congo Red (CR) staining assay; type: physicochemical; details: DMSO stock freshly diluted in PBS
# Procedure: (§1) To investigate if SW1010 (like PAP248-286) forms insoluble aggregates, in particular amyloid like material, the reactivity of a freshly prepared SW1010 peptide solution to the amyloid specific dye Thioflavin T (ThT) was analyzed. […] Further evidence that SW1010 forms amyloid like material was derived by staining with another amyloid specific dye, Congo Red (CR) (Münch et al., 2007). […] Thus, when used to enhance retroviral infection or transduction efficiencies (FIG. 1 F), the peptide of the invention provides an important advantage over SEVI amyloid fibrils that have to be generated by agitating the monomeric PAP248-286 by several hours or days on a table rotator (Münch et al., 2007; Wurm et al., 2009).
# (§2) Similarly, all SW1010 derivatives were analyzed for ThT and CR reactivity.
# To test if SWB is soluble in solvents other than DMSO and can form virus enhancing amyloid like material upon diluting in PBS, the inventors resuspended SWB powder in various solvents. […] Since acetic acid stocks were highly toxic for cell culture at higher concentrations, all following SWB stock solutions were then prepared by dissolving the peptide in less cytotoxic DMSO. In all subsequent experiments the concentrations of DMSO in the presence of virus or cells were lower than 1%, preferably between about 0.2 and about 1%.
# [4] = Thioflavin T (ThT) fluorescence; type: physicochemical; details: DMSO stock freshly diluted in PBS
# Procedure: as §1, §2
Substance,enhancement of HIV infection [2],Congo Red (CR) staining [3],ThT fluorescence [4],enhancers of HIV infection at the lowest viral dose [2],other results
QCKIKQIINMWQ [SWB],,,,,solubility (Solubility limit in DMSO): 25000 µM and 38000 µg/mL; toxic effects (Jurkat T cells): no toxic effects; toxic effects (KG-1 cells): no toxic effects; toxic effects (CEM-M7 cells): no toxic effects; toxic effects [1]: no toxic effects
"SW1014: N-terminal half of SW1010 (QIINMWQEVG; SW-peptide derived from peptide gp120 of HIV-1 strain MN (Gurgo et al., 1988))",weak or no effects,specific staining,increases fluorescence intensities,,
"SWC: variant of SW1010 of different length (KIKQIINMWQ; SW-peptide derived from peptide gp120 of HIV-1 strain MN (Gurgo et al., 1988))",,specific staining,,most potent enhancers,
"SWCON: peptide derived from a SW1010 homologous consensus sequence of all HIV-1 M strains (TITLPCRIKQIINMWQGVG; SW-peptide derived from peptide gp120 of HIV-1 strain MN (Gurgo et al., 1988))",,specific staining,increases fluorescence intensities,most potent enhancers,
"SWE: variant of SW1010 of different length (QCKIKQIINMW; SW-peptide derived from peptide gp120 of HIV-1 strain MN (Gurgo et al., 1988))",,specific staining,increases fluorescence intensities,most potent enhancers,
"SWNL43: peptide corresponding to SW1010 of the HIV-1 clone NL4-3 (TITLPCRIKQFINMWQEVG; SW-peptide derived from peptide gp120 of HIV-1 strain MN (Gurgo et al., 1988))",weak or no effects,did react with CR to a lesser extend,,,

# From patent publication US8652483B2, “Viral infection enhancing peptide” (priority 2010, dated 2014)
